Test results: publication PMC5853558, “De novo identification of lipid II binding lipopeptides with antibacterial activity against vancomycin-resistant bacteria” (Chemical Science, 2017)
≈ marks a conversion by molar mass, not a printed value. *1 amine or outer side, *2 acyl side, *3 side chain or, on linkers, in order; H or OH if unused. Where a SMILES comes first, the peptide text is derived from it. Bridges are numbered along the chain shown (N, C = ends). [ ]: non-standard residue; d: D form. The star is where a group is joined. TBMB = c1c(C[*:1])cc(C[*:3])cc1C[*:2]; NH(CH2)11CH3 = CCCCCCCCCCCCN*; NHDecyl = CCCCCCCCCCN*

Assays:
[1] = test system: Sheep blood; test: Hemolysis assay; assay type: cell-based
Description: Sheep blood in Alsever’s solution (2 mL) was diluted with PBS (13 mL) and centrifuged (2,000 RPM, 5 min). The supernatant was discarded and the cells were washed with another 13 mL of PBS and centrifuged. Washing was continued until the supernatant was clear. After the final wash the supernatant was discarded and the packed cells were kept on ice. Serial dilutions of each peptide were made in 50 µl PBS with the highest tested concentration 64 µg/mL in PBS, 2%
DMSO. The packed cells (150 µL) were suspended in PBS (10 mL) and 50 µL of this suspension was added to each well. A well plate column containing 0.1% triton x-100 in DI water was used as the 100% lysis control and a second column with PBS (with 2% DMSO) served as the 0% lysis control. After incubation at 37°C for 1h the plates were centrifuged (2,000 RPM, 5 min) and 25 µL of the supernatant was added to 100 µL DI water in a flat-bottom 96-wells plate (polystyrene). […]

[2] = test system: S. epidermidis (1587); test: microbe, parasite or virus in culture; assay type: cell-based
Description: (§1) Section 4 Biological and biochemical experiments
(§2) 4.1 Minimum inhibitory concentration assay
(§3) MIC values were determined by using the broth microdilution method. Peptides were dissolved first in DMSO and diluted with broth so that the final peptide concentration was 1024 µg/ml and the DMSO concentration was 4%. Peptide serial dilutions were made in TSB in a polypropylene 96-wells plate using 50 µl volumes. An overnight culture of the organism of interest was diluted to and OD600 of 0.01 and grown until they reach 0.5. The culture was then diluted to 1 x 10^6 CFU/ml and 50 µl of this suspension was added to each well. The highest concentrations were then 512 µg/ml peptide and 2% DMSO. The plates were incubated at the preferred growth temperature of the organism that was used and 250 rpm. […] When […]
(§4) determining the MICs of the lipidated peptides, the lipopeptides were first dissolved in DMSO and diluted with TSB so that the peptide concentration was 128 µg/ml and the DMSO concentration was 4%. After inoculation the highest peptide concentration evaluated was 64 µg/ml and the DMSO concentration was 2%. A DMSO control was tested for each strain to ensure the DMSO did not affect the growth of the particular strain. […]

[3] = test system: B. subtilis (168); test: microbe, parasite or virus in culture; assay type: cell-based
Description: as §1, §2, §3, §4

[4] = test system: S. pyogenes (5448); test: microbe, parasite or virus in culture; assay type: cell-based
Description: as §1, §2, §3, §4

[5] = test system: E. faecium (VRE0321); test: microbe, parasite or virus in culture; assay type: cell-based, Enterococcus faecium
Description: as §1, §2, §3, §4

[6] = test system: E. faecium (VRE155); test: microbe, parasite or virus in culture; assay type: cell-based, Enterococcus faecium
Description: as §1, §2, §3, §4

[7] = test system: E. faecium (E980); test: microbe, parasite or virus in culture; assay type: cell-based, Enterococcus faecium
Description: as §1, §2, §3, §4

[8] = test system: E. faecium (VRE7391); test: microbe, parasite or virus in culture; assay type: cell-based, Enterococcus faecium
Description: as §1, §2, §3, §4

[9] = test system: E. faecium (VRE2297); test: microbe, parasite or virus in culture; assay type: cell-based, Enterococcus faecium
Description: as §1, §2, §3, §4

[10] = test system: M. luteus (NCTC2665); test: microbe, parasite or virus in culture; assay type: cell-based, Micrococcus luteus
Description: as §1, §2, §3, §4

[11] = Supplemental table S9, 1 hour incubation at 37 °C, lipopeptides at 32 µg/mL
[12] = Supplemental table S9, MIC values of Table 2 expressed in µM
[13] = Table 2, broth microdilution in TSB, 16 h, read visually, highest tested 64 µg/ml
[14] = Table 2, vancomycin-resistant isolate from hospitalized patients, broth microdilution in TSB, 16 h, highest tested 64 µg/ml
[15] = Supplemental table S9, vancomycin-resistant isolate, MIC values of Table 2 expressed in µM
[16] = Table 2, broth microdilution in TSB, 16 h, read visually, highest tested 64 µg/ml, 2% DMSO
[17] = Supplemental table S7, P8 with varying lipids, broth microdilution

| SMILES | Hemolysis [1, 11] [%] | MIC S. epidermidis (1587) [2, 12] | MIC S. epidermidis (1587) [2, 13] [μg mL^–1] | MIC B. subtilis (168) [3, 12] [µM] | MIC B. subtilis (168) [3, 13] [μg mL^–1] | MIC S. pyogenes (5448) [4, 12] [µM] | MIC S. pyogenes (5448) [4, 13] [μg mL^–1] | MIC E. faecium (VRE0321) [5, 14] | MIC E. faecium (VRE155) [6, 14] | MIC E. faecium (E980) [7, 12] [µM] | MIC E. faecium (E980) [7, 13] [μg mL^–1] | MIC E. faecium (VRE7391) [8, 14] | MIC E. faecium (VRE2297) [9, 15] | MIC E. faecium (VRE2297) [9, 14] [μg mL^–1] | MIC M. luteus (NCTC2665) [10, 12] [µM] | MIC M. luteus (NCTC2665) [10, 16] [μg mL^–1] | MIC E. faecium (VRE7391) [8, 15] | other results |
| --- | --- | --- | --- | --- | --- | --- | --- | --- | --- | --- | --- | --- | --- | --- | --- | --- | --- | --- |
| CCCCCCCCCCNC(=O)CNC(=O)[C@H]1CSCc2cc3cc(c2)CSC[C@@H](NC(=O)[C@@H](CC(C)C)NC(=O)[C@@H](CC(C)C)NC(=O)[C@@H](CO)NC(=O)[C@@H](CCC(N)=O)NC(=O)[C@@H](CC(C)C)NC(=O)[C@@H](CC(C)C)NC(=O)[C@H](NC(=O)[C@@H](C)N)CSC3)C(=O)N2CCC[C@@H]2C(=O)N[C@H](Cc2ccc(O)cc2)C(=O)N[C@H](CO)C(=O)N[C@H]([C@H](C)O)C(=O)N[C@H](CCCNC(=N)N)C(=O)N[C@H](C)C(=O)N1 [P8-D-(H14R, R15A)-C10] (H-[dA][dC][dL][dL][dQ][dS][dL][dL][dC][dP][dY][dS][dT][dR][dA][dC]G-NHDecyl; linker 2-9-16 via TBMB; N-terminus assumed) | 2 | > 62. 4 µM | >64 | 15.6 (≈ 32 µg/mL) | 16 | 15.6 (≈ 32 µg/mL) | 16 | 8–16 μg mL^–1 | 8–16 μg mL^–1 | 31.2 (≈ 64 µg/mL) | 32 | 8–16 μg mL^–1 | 15.6 µM (≈ 32 µg/mL) | 16 | 3.9 (≈ 8.01 µg/mL) | 4 | – | – |
| CCCCCCCCCCNC(=O)CNC(=O)[C@H]1CSCc2cc3cc(c2)CSC[C@@H](NC(=O)[C@@H](CC(C)C)NC(=O)[C@@H](CC(C)C)NC(=O)[C@@H](CO)NC(=O)[C@@H](CCC(N)=O)NC(=O)[C@@H](CC(C)C)NC(=O)[C@@H](CC(C)C)NC(=O)[C@H](NC(=O)[C@@H](C)N)CSC3)C(=O)N[C@H](CCCNC(=N)N)C(=O)N[C@H](Cc2ccc(O)cc2)C(=O)N[C@H](CO)C(=O)N[C@H]([C@H](C)O)C(=O)N[C@H](Cc2c[nH]cn2)C(=O)N[C@H](C)C(=O)N1 [P8-D-(P10R, R15A)-C10] (H-[dA][dC][dL][dL][dQ][dS][dL][dL][dC][dR][dY][dS][dT][dH][dA][dC]G-NHDecyl; linker 2-9-16 via TBMB; N-terminus assumed) | 0 | > 61. 2 µM | >64 | 7.7 (≈ 16.1 µg/mL) | 8 | 15.3 (≈ 32 µg/mL) | 16 | 16 μg mL^–1 | 8 μg mL^–1 | 30.6 (≈ 64 µg/mL) | 32 | 16 μg mL^–1 | 30.6 µM (≈ 64 µg/mL) | 32 | 3.8 (≈ 7.95 µg/mL) | 4 | 15.3 µM (≈ 32 µg/mL) | MIC E. faecium (VRE0321) [5, 15]: 15.3 µM (≈ 32 µg/mL); MIC E. faecium (VRE155) [6, 15]: 7.7 µM (≈ 16.1 µg/mL) |
| CCCCCCCCCCNC(=O)CNC(=O)[C@H]1CSCc2cc3cc(c2)CSC[C@@H](NC(=O)[C@@H](CC(C)C)NC(=O)[C@@H](CC(C)C)NC(=O)[C@@H](CO)NC(=O)[C@@H](CCC(N)=O)NC(=O)[C@@H](CC(C)C)NC(=O)[C@@H](CC(C)C)NC(=O)[C@H](NC(=O)[C@@H](C)N)CSC3)C(=O)N2CCC[C@@H]2C(=O)N[C@H](Cc2ccc(O)cc2)C(=O)N[C@H](CO)C(=O)N[C@H]([C@H](C)O)C(=O)N[C@H](Cc2c[nH]cn2)C(=O)N[C@H](C)C(=O)N1 [P8-D-(R15A)-C10] (H-[dA][dC][dL][dL][dQ][dS][dL][dL][dC][dP][dY][dS][dT][dH][dA][dC]G-NHDecyl; linker 2-9-16 via TBMB; N-terminus assumed) | 0 | > 63. 1 µM | >64 | > 63.1 | >64 | – | 16 | 8–16 μg mL^–1 | 16 μg mL^–1 | 63.1 (≈ 128 µg/mL) | 64 | >64 μg mL^–1 | > 63. 1 µM | >64 | 3.9 (≈ 7.93 µg/mL) | 4 | > 63. 1 µM | Hemolysis ([1]; Table 2, sheep blood cells in PBS, lipopeptides at 32 μg mL^–1, 1 hour at 37 °C, absorption at 414 nm, 0.1% triton x-100 = 100% lysis, listed as P8-R15A-C10): completely non-hemolytic; MIC M. luteus (NCTC2665) ([10]; Table 2, broth microdilution in TSB, 16 h, read visually, highest tested 64 µg/ml, 2% DMSO, listed as P8-R15A-C10): retained activity |
| CCCCCCCCCCCCNC(=O)CNC(=O)[C@H]1CSCc2cc3cc(c2)CSC[C@@H](NC(=O)[C@@H](CC(C)C)NC(=O)[C@@H](CC(C)C)NC(=O)[C@@H](CO)NC(=O)[C@@H](CCC(N)=O)NC(=O)[C@@H](CC(C)C)NC(=O)[C@@H](CC(C)C)NC(=O)[C@H](NC(=O)[C@@H](C)N)CSC3)C(=O)N2CCC[C@@H]2C(=O)N[C@H](Cc2ccc(O)cc2)C(=O)N[C@H](CO)C(=O)N[C@H]([C@H](C)O)C(=O)N[C@H](Cc2c[nH]cn2)C(=O)N[C@H](CCCNC(=N)N)C(=O)N1 [Peptide P8-D-C12] (H-[dA][dC][dL][dL][dQ][dS][dL][dL][dC][dP][dY][dS][dT][dH][dR][dC]G-{NH(CH2)11CH3}; linker 2-9-16 via TBMB; N-terminus assumed) | – | – | – | – | – | – | – | – | – | – | – | – | – | – | – | – | – | Hemolysis 32 µg/ml (after 1 h) ([1]; Supplemental table S7, sheep blood cells in PBS, 32 µg/ml, 1 h at 37°C, absorption at 414 nm): 9%; MIC VRE E155 [6, 17]: 8 µg/mL (≈ 3.73 µM); MIC M. luteus [10, 17]: 4 to 8 µg/mL |
